Laboratory results taken from patent US20240226026A1, “BRANCHED TAIL LIPID COMPOUNDS AND COMPOSITIONS FOR INTRACELLULAR DELIVERY OF THERAPEUTIC AGENTS” (ModernaTX, Inc., priority 2021, published 2024).

Legend:
[1] = Particle size (diameter) and polydispersity index of lipid nanoparticles; format: physicochemical; details: nanoparticles comprising the lipid
Method: A Zetasizer Nano ZS (Malvern Instruments Ltd, Malvern, Worcestershire, UK) can be used to determine the particle size, the polydispersity index (PDI) and the zeta potential of the nanoparticle compositions in 1×PBS in determining particle size and 15 mM PBS in determining zeta potential.
Lipid nanoparticles (e.g., empty LNPs or loaded LNPs) may be characterized by a variety of methods. For example, microscopy (e.g., transmission electron microscopy or scanning electron microscopy) may be used to examine the morphology and size distribution of a nanoparticle composition. Dynamic light scattering or potentiometry (e.g., potentiometric titrations) may be used to measure zeta potentials. Dynamic light scattering may also be utilized to determine particle sizes. Instruments such as the Zetasizer Nano ZS (Malvern Instruments Ltd, Malvern, Worcestershire, UK) may also be used to measure multiple characteristics of a nanoparticle composition, such as particle size, polydispersity index, and zeta potential.
(§1) Lipid nanoparticles (e.g., empty LNPs or loaded LNPs) including DSPC as a phospholipid, cholesterol as a structural lipid, PL-II (e.g., PEG-1) as a PEG lipid, and a lipid according to Formula (I-1), (I), (I-A), (I-A1), (I-A2), (I-A3), or (I-A4) were prepared. In some embodiments, the lipid nanoparticles further included rhodamine-DOPE as a fluorescent lipid. Tables 2a, 2b, and 3 summarize the characteristics of the formulations.

[2] = Encapsulation efficiency (% EE) of lipid nanoparticles; format: physicochemical; details: nanoparticles comprising the lipid
Method: For nanoparticle compositions including an RNA, a QUANT-IT™ RIBOGREEN® RNA assay (Invitrogen Corporation Carlsbad, CA) can be used to evaluate the encapsulation of an RNA by the nanoparticle composition. The samples are diluted to a concentration of approximately 5 μg/mL in a TE buffer solution (10 mM Tris-HCl, 1 mM EDTA, pH 7.5). 50 μL of the diluted samples are transferred to a polystyrene 96 well plate and either 50 μL of TE buffer or 50 μL of a 2% Triton X-100 solution is added to the wells. The plate is incubated at a temperature of 37° C. for 15 minutes. The RIBOGREEN® reagent is diluted 1:100 in TE buffer, and 100 μL of this solution is added to each well. The fluorescence intensity can be measured using a fluorescence plate reader (Wallac Victor 1420 Multilablel Counter; Perkin Elmer, Waltham, MA) at an excitation wavelength of, for example, about 480 nm and an emission wavelength of, for example, about 520 nm. The fluorescence values of the reagent blank are subtracted from that of each of the samples and the percentage of free RNA is determined by dividing the fluorescence intensity of the intact sample (without addition of Triton X-100) by the fluorescence value of the disrupted sample (caused by the addition of Triton X-100).
The efficiency of encapsulation of a therapeutic and/or prophylactic describes the amount of therapeutic and/or prophylactic that is encapsulated or otherwise associated with a lipid nanoparticle (e.g., an empty LNP or a loaded LNP) after preparation, relative to the initial amount provided. The encapsulation efficiency is desired to be high (e.g., close to 100%). The encapsulation efficiency may be measured, for example, by comparing the amount of therapeutic and/or prophylactic in a solution containing a loaded LNP before and after breaking up the loaded LNP with one or more organic solvents or detergents. Fluorescence may be used to measure the amount of free therapeutic and/or prophylactic (e.g., RNA) in a solution. For the loaded LNPs formulated with lipids of the disclosure, the encapsulation efficiency of a therapeutic and/or prophylactic is at least 50%, for example 50%, 55%, 60%, 65%, 70%, 75%, 80%, 85%, 90%, 91%, 92%, 93%, 94%, 95%, 96%, 97%, 98%, 99%, or 100%. In some embodiments, the encapsulation efficiency is at least 80%. In some embodiments, the encapsulation efficiency is at least 90%. In some embodiments, the encapsulation efficiency of the therapeutic and/or prophylactic agent is between 80% and 100%.
as §1

[3] = Lipid nanoparticle surface hydrophobicity by Generalized Polarization by Laurdan (N-GP); format: physicochemical; details: for Lipid nanoparticle surface hydrophobicity (N-GP*): Table 2a, Laurdan, higher N-GP indicates a less polar surface; for LNP surface hydrophobicity (N-GP*): Table 2b, nanoparticles comprising the lipid
From the text: Surface hydrophobicity of nanoparticles of the disclosure can be measured by Generalized Polarization by Laurdan (GPL). In this method, Laurdan, a fluorescent aminonaphthalene ketone lipid, is post-inserted into the nanoparticle surface and the fluorescence spectrum of Laurdan is collected to determine the normalized Generalized Polarization (N-GP). In some embodiments, nanoparticles formulated with lipids of the disclosure have a surface hydrophobicity expressed as N-GP of between about 0.5 and about 1.5. For example, in some embodiments, nanoparticles formulated with lipids of the disclosure have a surface hydrophobicity expressed as N-GP of about 0.5, about 0.6, about 0.7, about 0.8, about 0.9, about 1.0, about 1.1, about 1.2, about 1.3, about 1.4, or about 1.5. In some embodiments, nanoparticles formulated with lipids of the disclosure have a surface hydrophobicity expressed as N-GP of about 1.0 or about 1.1.

[4] = Apparent pKa of lipid nanoparticles; format: physicochemical; details: for Apparent pKa: Table 2a, nanoparticles comprising the lipid; for Apparent pKa 95% CI: Table 2b, 95% confidence interval
CD-1 mice = test: Expression of hEPO induced by LNPs (mRNA encoding hEPO) administered to mice; format: in vivo; details: Table 4a, serum, 6 h after intravenous injection; for Avg. hEPO Concentration (mIU/mL)* ± Avg. SD: ELLA Simple Plex Assay
Method: In some embodiments, hEPO concentrations were determined using an […] (ELLA) Simple Plex Assay (ProteinSimple) with a Human Erythroprotein cartridge. Standards for this assay are calibrated according to the 2. IRP WHO preparation. Nanoparticle compositions including mRNA are useful in the evaluation of the efficacy and usefulness of various formulations for the delivery of therapeutic and/or prophylactics. Higher levels of protein expression induced by administration of a composition including an mRNA will be indicative of higher mRNA translation and/or nanoparticle composition mRNA delivery efficiencies. As the non-RNA components are not thought to affect translational machineries themselves, a higher level of protein expression is likely indicative of a higher efficiency of delivery of the therapeutic and/or prophylactic by a given nanoparticle composition relative to other nanoparticle compositions or the absence thereof.
To assess potency of expression of lipids of the disclosure, the protein expression (hEPO) following administration of a nanoparticle comprising a lipid of the disclosure (e.g., a loaded LNP) to mice was measured.
Lipid nanoparticles (LNPs) including DSPC as a phospholipid, cholesterol as a structural lipid, PL-II (e.g., PEG-1) as a PEG lipid, a lipid according to Formula (I-1), (I), (I-A), (I-A1), (I-A2), (I-A3), or (I-A4), and an mRNA encoding hEPO were intravenously administered to CD-1 mice. The concentration of hEPO in serum was tested at 6 h after injection.

[5] = Table 2a, DSPC, cholesterol, PEG lipid

Structure (SMILES)	PDI ([1]; Table 2a)	Diameter (nm) [1, 5]	Diameter (nm) ([1]; Table 3)	PDI ([1]; Table 3)	% EE ([2]; Table 2a)	% EE ([2]; Table 3)	Lipid nanoparticle surface hydrophobicity (N-GP*) [3]	Apparent pKa [4]	Avg. hEPO Concentration (mIU/mL) ± Avg. SD (CD-1 mice)	Diameter (nm) ([1]; Table 2b)	PDI ([1]; Table 2b)	% EE ([2]; Table 2b)	LNP surface hydrophobicity (N-GP*) [3]	Apparent pKa 95% CI [4]	Avg. hEPO Concentration (mIU/mL)* ± Avg. SD (CD-1 mice)
CCCCCC(CCCCC)CCOC(=O)CCCCCCCN(CCCCCCCC(=O)OCCC(CCCC)CCCC)CCCNc1n[s+]([O-])nc1NC (stereo not shown) [Compound 8]	0.144	86.9 nm	90.9 nm	0.217	89.6%	97.1%	0.99	6.934	4.95E+06 ± 1.24E+05 mIU/mL	–	–	–	–	–	–
CCCCCCCC(CCCCCCC)OC(=O)CCCCCCCN(CCCCCCCC(=O)OCCC(CCCC)CCCC)CCCNc1n[s+]([O-])nc1NC (stereo not shown) [Compound 15]	0.128	76.4 nm	74.2 nm	0.212	96.6%	97.2%	0.94	6.761	3.74E+06 ± 1.61E+05 mIU/mL	–	–	–	–	–	–
CCCCCCCCC(CCCCCCCC)OC(=O)CCCCCCCN(CCCCCCCC(=O)OCCC(CCCC)CCCC)CCCNC(=O)C1(C)CC1 [Compound 4]	–	–	84.6 nm	0.194	–	54.1%	–	–	–	94.5 nm	0.198	45.9%	1.05	6.676 to 6.749	1.04E+07 ± 2.85E+05 mIU/mL
CCCCCCCCC(CCCCCCCC)OC(=O)CCCCCCCN(CCCCCCCC(=O)OCCC(CCCC)CCCC)CCCNS(=O)(=O)CC [Compound 5]	0.073	67.2 nm	83.1 nm	0.166	93.4%	96.0%	1.02	6.536	1.04E+07 ± 2.49E+05 mIU/mL	–	–	–	–	–	–
CCCCCC(CCCCC)CCOC(=O)CCCCCCCN(CCCCCCCC(=O)OCCC(CCCC)CCCC)CCCNS(=O)(=O)CCOC [Compound 10]	0.208	133.3 nm	96.7 nm	0.154	55.1%	91.7%	1.03	6.738	6.15E+06 ± 1.35E+05 mIU/mL	122.3 nm	0.181	65.0%	0.89	6.644 to 6.741	–
CCCCCCCC(CCCCCCC)OC(=O)CCCCCCCN(CCCCCCCC(=O)OCCC(CCCC)CCCC)CCCNc1ncccc1N [Compound 21]	–	–	92.8 nm	0.255	–	98.4%	–	–	–	98.9 nm	0.305	97.9%	1.18	6.685 to 6.778	8.77E+05 ± 1.73E+04 mIU/mL
CCCCCCCC(CCCCCCC)OC(=O)CCCCCCCN(CCCCCCCC(=O)OCCC(CCCC)CCCC)CCCNS(=O)(=O)CC [Compound 19]	0.127	82.8 nm	84.5 nm	0.129	77.2%	94.5%	1.00	6.551	1.36E+07 ± 2.52E+05 mIU/mL	86.4 nm	0.187	77.0%	1.00	6.572 to 6.671	–
CCCCCC(CCCCC)CCOC(=O)CCCCCCCN(CCCCCCCC(=O)OCCC(CCCCC)CCCCC)CCCNC(=O)C1(C)CC1 [Compound 25]	–	–	89.3 nm	0.154	–	36.1%	–	–	–	163.9 nm	0.22	26.4%	0.98	6.865 to 6.928	5.13E+06 ± 9.33E+04 mIU/mL
